A word on the bioavailability: it is the share of a dose that reaches the circulation, judged against a reference dose that is usually intravenous.

For series [1], the system named is human cardiomyocyte cells (HCM). Kind of series: Glucose uptake assay, human cardiomyocyte cells. Type of series: cell-based. The conditions noted are these: for AMPK activation activity (glucose uptake assay): 10 doses 100 μM to 0.005 μM. The procedure: FIGS. 17-19 show results for glucose update assays in human cardiomyocyte cells (“HCM”-healthy donor) (Promocell, cat. no. C-12810) when treated with compound I-11 (FIG. 17), compound I-7 (FIG. 18), and PF-06409577 (FIG. 19). After recovered HCM cells for 4 days, cells were starved for 3 hours in high glucose DMEM without FBS, treated with the components noted above in DMEM without FBS/glucose for 1 hour, and glucose uptake was detected using a glucose uptake kit (Promega). […] The bars show (from left to right) concentrations of 100 μM, 33 μM, 11 μM, 3.7 μM, 1.23 μM, 0.41 μM, 0.14 μM, 0.045 μM, 0.015 μM, 0.005 μM, 0 μM, and insulin.
FIGS. 20-22 show results for glucose update assays in human cardiomyocyte cells (“HCM”-diabetic donor) (Promocell, cat. no. C-12810) when treated with compound I-11 (FIG. 20), compound I-7 (FIG. 21), and PF-06409577 (FIG. 22). After recovered HCM cells for 4 days, cells were starved for 3 hours in high glucose DMEM without FBS, treated with the components noted above in DMEM without FBS/glucose for 1 hour, and glucose uptake was detected using a glucose uptake kit (Promega). […] The bars show (from left to right) concentrations of 100 μM, 33 μM, 11 μM, 3.7 μM, 1.23 μM, 0.41 μM, 0.14 μM, 0.045 μM, 0.015 μM, 0.005 μM, 0 μM, and insulin.
Human skeletal myoblasts were obtained (Thermofisher; BYU) and cultured in DMEM/F12 medium with 10% FBS. For differentiation, 2% horse serum low glucose DMEM medium was employed for 72 hours. Human cardiomyocytes cells (HCM cells; Promocell) were cultured in myocyte growth medium (Promocell). Human preadipocyte HWP-c cells (Promocell) were obtained from upper arm of diabetic II donor. Human preadipocyte HWP-c cells (Promocell) were obtained from abdomen of diabetic II donor. For differentiating human preadipocytes, cells were cultured in preadipocyte growth medium to total confluency stage. The growth medium was replaced with preadipocyte differentiation medium for 72 hours, then changed to PromoCell adipocyte nutrition medium to complete the differentiation process. THLE-2 cells were cultured in BEGM from Lonza/Clonetics Corporation, Walkersville, MD 21793 (BEGM Bullet Kit; CC3170). HepG2, L6 and C2Cl2 cells were cultured in EMEM medium.
After differentiation myoblasts, preadipocyte cells were starved by removing the medium and adding 100 μL DMEM without serum. The medium was then replaced with 100 μL DMEM±1 μM insulin at indicated concentration of representative compounds without serum or glucose. The cells were then incubated for 1 hour at 37° C. in 5% CO2. The cells were then removed from the medium and 50 μL of 0.1 mM 2DG in PBS was added. Cells were incubated for 30 minutes at 25° C. 25 μL of Stop Buffer was added and samples were mixed. 25 μL of Neutralization Buffer was then added and mixed. 100 μL of 2DG6P Detection Reagent was then added and mixed. Samples were then incubated for 1 hour at 25° C. Luminescence was then recorded with 0.3-1 second integration on a luminometer.

Series [2] is described as follows: PK oral bioavailability experiment, mouse. Format: in vivo, male Swiss Albino Mouse. The conditions noted are these: 1 mg/kg intravenous, 5 mg/kg oral. The procedure: A total of 24 male Swiss albino mouse were allotted for the study, Animals were allotted to 2 groups containing 12 mice/group, on day of dosing all the animals were fasted 3 hours before dosing. The test formulation was administered as a single dose by intravenous and oral route via tail vein and oral gavage needle at a dose of 1 and 5 mg/kg with a dose volume of 5 and 10 mL/kg, respectively.
Approximately 0.1 mL of blood sample from each animal was collected via retro orbital at predetermined time points (3 animals/Timepoint) in pre-labeled Eppendorf tubes containing anticoagulant. After blood collection at 0.5 h and 1 h, after collection of CSF, whole blood was withdrawn, and brain tissue was collected as a terminal sampling. Blood samples were centrifuged at 10000 rpm for 5 min under refrigeration (2-4° C.) within 0.5 h to obtain plasma. The separated plasma samples were collected in pre labeled tubes within 60 min of separation and stored at −20° C. up to 24 h. Post 24 h sample collection, all plasma samples were transferred to deep freezer custodian to store below or at −70° C. until shipment.
Similarly, CSF and Brain were collected at 0.5 h and 1h time point by scarification. Tissues were blotted and dried and then transferred to 15 mL falcon tubes. Initially all tissue samples were stored at −20±3° C. Later all brain tissue samples were homogenized with PBS at 1:4 ratio and the brain homogenate were transferred to deep freezer (−70±10° C.) and stored.
The PK parameters were evaluated using Phoenix WinNonlin® Ent-Version 8.3 by non-compartmental analysis.

Series [3] can be described thus: in vivo. Type of series: in vivo. The following applies: dog. As for the experimental part: A total of 3 animals were segregated in to one group and each animal received oral dose followed by intravenous infusion (15 minutes) as a cross over design with 7 days of no dose interval between periods. […] Similarly, in period 2 after 7 days of no dose interval, animals were received intravenous infusion for 15 min at a dose of 1 mg/kg via saphenous vein at a dose volume of 1 mL/kg, each dog was observed after administration of the test item for presence or absence of clinical signs.
A total of 11 time points for oral and 12 blood samples for IV per each animal were collected, approximately 1 mL were collected from each dog in pre-labeled Eppendorf tubes containing 20 μL/mL of 200 mM K2 EDTA. Blood was withdrawn at scheduled time points via cephalic vein in pre-labelled Eppendorf tubes. The pre-dose blood sample was collected before to drug administration. Post dose samples were collected within stipulated time. The blood samples were kept on crushed ice to maintain the temperature until centrifugation. Plasma was separated and stored under −70° C. […] The PK parameters were evaluated using Phoenix WinNonlin® Ent-Version 8.3 by non-compartmental analysis.

In series [4] the test system is AMPK signal pathway in L6 cells. Kind of series: Western blot assay, L6 cells.
Experimental: (§1) Samples for immunoblotting studies were prepared for electrophoresis by adding in a final concentration of 1× Laemmli loading buffer (supplemented with 5% 2-mercaptoethanol). Samples were then electrophorized by SDS-PAGE (4-15% or 4-20% Criterion TGX Precast gel, Bio-Rad) at a constant voltage within the range of 140V. Proteins were transferred to a nitrocellulose membrane (Bio-Rad) using the Trans-Blot Turbo transfer system (Bio-Rad). Membranes were blocked with 5% BSA in TBST for a minimum of 1 hour at room temperature before incubating with the following primary antibodies: • Phospho-AMPKα (Thr172) (40H9) Rabbit mAb (CST, cat no: 2535S), • AMPKα Antibody (CST, cat no: 2532S) • Phospho-Raptor (Ser792) Antibody (CST, cat no: 2083S) • Raptor (24C12) Rabbit mAb (CST, cat no: 2280S) • Phospho-Acetyl-CoA Carboxylase (Ser79) Antibody (CST, cat no: 3661S) • Acetyl-CoA Carboxylase Antibody (CST, cat no: 3662S) • AMPKα2 Antibody (CST, cat no: 2757S) • AMPKβ1 antibody (CST, cat no: 12063) • AMPKβ2 Antibody (CST, CST, cat no: 4148S) • AMPKγ3 Antibody (CST, cat no: 2550S). […]
(§2) After differentiation of cells (e.g., HSKM, C2C12, L6) for 5 days, medium was changed to DHEM without FBS and glucose for starving cells for 2 hours. […] The resultant reaction mixture was then assayed and semi-quantitative histogram analysis of Western Blotting (signal value) was used to determine results.
Series [5] deals with AMPK signal pathway in C2C12 cells. In words: Western blot assay, C2C12 cells. For orientation: In western blotting, separated proteins are transferred to a membrane and probed.
Experimental: as §1, §2
Series [6] concerns AMPK signal pathway in human liver cells-HepG2. In words: Western blot assay, HepG2 cells.
Experimental: Samples for immunoblotting studies were prepared for electrophoresis by adding in a final concentration of 1× Laemmli loading buffer (supplemented with 5% 2-mercaptoethanol). Samples were then electrophorized by SDS-PAGE (4-15% or 4-20% Criterion TGX Precast gel, Bio-Rad) at a constant voltage within the range of 140V. Proteins were transferred to a nitrocellulose membrane (Bio-Rad) using the Trans-Blot Turbo transfer system (Bio-Rad). Membranes were blocked with 5% BSA in TBST for a minimum of 1 hour at room temperature before incubating with the following primary antibodies: • Phospho-AMPKα (Thr172) (40H9) Rabbit mAb (CST, cat no: 2535S), • AMPKα Antibody (CST, cat no: 2532S) • Phospho-Raptor (Ser792) Antibody (CST, cat no: 2083S) • Raptor (24C12) Rabbit mAb (CST, cat no: 2280S) • Phospho-Acetyl-CoA Carboxylase (Ser79) Antibody (CST, cat no: 3661S) • Acetyl-CoA Carboxylase Antibody (CST, cat no: 3662S) • AMPKα2 Antibody (CST, cat no: 2757S) • AMPKβ1 antibody (CST, cat no: 12063) • AMPKβ2 Antibody (CST, CST, cat no: 4148S) • AMPKγ3 Antibody (CST, cat no: 2550S).

Structures are written as SMILES. “Also recorded” adds a separate entry of the source.

On to `O=c1[nH]c(-c2c[nH]c3cc(F)c(-c4ccc(C5(O)CCC5)cc4)c(F)c23)no1` [Compound I-11, 3-(4,6-difluoro-5-(4-(1-hydroxycyclobutyl)phenyl)-1H-indol-3-yl)-1,2,4-oxadiazol-5(4H)-one], for which the “AMPK activation activity (glucose uptake assay)” value in series [1] (diabetic donor) is listed as “did not show AMPK activation activity”. For the same compound, the glucose uptake entry in series [1] (donor not stated) is reported as “did not induce glucose uptake in dose-dependent manner; also recorded: did not activate glucose uptake”. The “AMPK activation activity (glucose uptake assay)” value in series [1] (healthy donor) was “did not show AMPK activation activity”. Moreover, in series [2], the clearance entry is “low clearance”, the elimination entry is reported as “biphasic elimination” and the systemic exposure entry was “moderate systemic exposure”. Besides, the “systemic exposure, oral administration” value in series [3] (5 mg/kg oral) is listed as “low systemic exposure”. The same compound yielded a bioavailability in series [3] (male, Beagle, plasma, 5 mg/kg oral compared with intravenous infusion (1 mg/kg)) of 5.27 ± 2.94%. Moreover, the pAMPK/pACC/AMPKα2γ3 expression result in series [4] is recorded as “can also induce”. The pAMPK/pACC/AMPKα2β1β2γ3 expression entry in series [5] is “also induce”. In addition, in series [6], the “p-AMPK/p-ACC and AMPKα2β1β2γ3 activation” value was “dosage-dependent manner”.

Values taken from patent US20250388571A1, “AMP-ACTIVATED PROTEIN KINASE MODULATOR COMPOUNDS AND USES THEREOF” (Biolexis Therapeutics, Inc., priority 2024, published 2025).
